From ChEMBL document CHEMBL4680160, “A perspective review on fatty acid amide hydrolase (FAAH) inhibitors as potential therapeutic agents” (Eur J Med Chem, 2020)
pIC50: −log10 of the molar value.

Tests used:
[1] = target: T1, Fatty-acid amide hydrolase 1 (Rattus norvegicus, UniProt P97612); assay: Inhibition of rat FAAH expressed in HEK293 cells using AEA as substrate by HPLC-MS/MS analysis; assay type: cell-based
T1 sequence (P97612 whole entry): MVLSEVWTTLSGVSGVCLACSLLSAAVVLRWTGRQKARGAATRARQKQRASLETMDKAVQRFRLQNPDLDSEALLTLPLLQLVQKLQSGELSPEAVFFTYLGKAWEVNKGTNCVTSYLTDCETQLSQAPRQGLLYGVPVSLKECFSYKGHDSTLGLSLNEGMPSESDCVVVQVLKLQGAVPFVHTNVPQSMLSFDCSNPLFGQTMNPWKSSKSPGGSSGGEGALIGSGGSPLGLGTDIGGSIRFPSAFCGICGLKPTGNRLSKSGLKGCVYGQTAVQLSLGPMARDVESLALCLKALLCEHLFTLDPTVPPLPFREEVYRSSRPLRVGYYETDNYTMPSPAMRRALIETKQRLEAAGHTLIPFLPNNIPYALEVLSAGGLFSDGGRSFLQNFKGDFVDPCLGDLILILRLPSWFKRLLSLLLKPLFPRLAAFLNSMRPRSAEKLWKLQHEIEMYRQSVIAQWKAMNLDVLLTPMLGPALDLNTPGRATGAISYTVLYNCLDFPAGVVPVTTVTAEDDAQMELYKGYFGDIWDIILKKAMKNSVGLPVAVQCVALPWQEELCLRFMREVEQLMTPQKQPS

[2] = target: T2, Fatty-acid amide hydrolase 1 (Homo sapiens, UniProt O00519); assay: Inhibition of human FAAH expressed in HEK293 cells using AMC arachidonyl amide as substrate pre-incubated for 50 mins followed by substrate addition and measured after 30 mins by fluorescence method; assay type: cell-based
T2 sequence (O00519 whole entry): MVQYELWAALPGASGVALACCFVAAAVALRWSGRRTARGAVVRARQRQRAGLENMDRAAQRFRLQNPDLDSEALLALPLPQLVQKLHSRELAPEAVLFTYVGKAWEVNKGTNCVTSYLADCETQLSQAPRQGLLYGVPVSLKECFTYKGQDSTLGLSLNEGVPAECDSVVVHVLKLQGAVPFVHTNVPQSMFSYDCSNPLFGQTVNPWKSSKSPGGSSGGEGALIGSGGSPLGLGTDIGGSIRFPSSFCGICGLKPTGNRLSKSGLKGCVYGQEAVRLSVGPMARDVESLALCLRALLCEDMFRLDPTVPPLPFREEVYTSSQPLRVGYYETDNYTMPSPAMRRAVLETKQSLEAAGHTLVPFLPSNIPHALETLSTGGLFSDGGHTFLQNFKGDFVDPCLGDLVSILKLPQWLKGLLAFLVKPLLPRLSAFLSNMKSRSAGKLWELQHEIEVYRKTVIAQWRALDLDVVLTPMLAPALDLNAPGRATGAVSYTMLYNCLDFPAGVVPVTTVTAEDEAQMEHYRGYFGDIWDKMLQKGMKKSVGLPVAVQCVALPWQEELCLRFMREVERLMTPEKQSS

[3] = target: T1, Fatty-acid amide hydrolase 1; assay: Inhibition of FAAH in Sprague-Dawley rat brain homogenate using arachidonoyl-ethanolamide and anandamide [ethanolamine-1-3H] as substrate pre-incubated for 10 mins followed by substrate addition and measured after 30 mins by liquid scintillation counting method; assay type: tissue-based
[4] = Kinetic solubility of compound in PBS at pH 7.4; assay type: physicochemical; details: read-out: Kinetic_solubility
[5] = In vivo inhibition of FAAH in NMRI mouse assessed as remaining enzymatic activity in brain at 30 mg/kg, po measured after 1 hr by AEA-substrate based scintillation counting method relative to control; assay type: functional
[6] = In vivo inhibition of FAAH in NMRI mouse assessed as remaining enzymatic activity in liver at 30 mg/kg, po measured after 1 hr by AEA-substrate based scintillation counting method relative to control; assay type: functional
[7] = target: T1, Fatty-acid amide hydrolase 1; assay: Inhibition of FAAH in rat brain homogenate using 2-arachidonoyl-[3H]-glycerol as substrate by scintillation counting method; assay type: tissue-based
[8] = target: Cannabinoid receptor 2 (Homo sapiens, UniProt P34972); assay: Displacement of [3H]-CP55940 from recombinant human CB2 receptor expressed in CHO cells incubated for 90 mins by scintillation counting method; assay type: cell-based
[9] = target: T3, Fatty-acid amide hydrolase 1 (Rattus norvegicus) (UniProt P97612); assay: Inhibition of rat FAAH expressed in HEK293 cells using AEA as substrate at 100 uM by liquid chromatography/mass spectroscopy relative to control; assay type: cell-based
T3 sequence (whole entry): T1 sequence (P97612 whole entry)

[10] = target: T1, Fatty-acid amide hydrolase 1; assay: Inhibition of FAAH in rat brain homogenate using [3H]AEA as substrate; assay type: tissue-based
[11] = target: T3, Fatty-acid amide hydrolase 1 (Rattus norvegicus); assay: Inhibition of FAAH in rat brain homogenate using AEA as substrate at 100 nM preincubated for 15 mins followed by substrate addition and measured after 10 mins by scintillation counting method relative to control; assay type: tissue-based; details: time 25.0 min
[12] = target: T1, Fatty-acid amide hydrolase 1; assay: Inhibition of rat FAAH using [3H]-AEA as substrate by liquid chromatography-mass spectrometry
[13] = target: T2, Fatty-acid amide hydrolase 1; assay: Inhibition of FAAH (unknown origin)
[14] = target: T4, Fatty-acid amide hydrolase 1 (Mus musculus, UniProt O08914); assay: Inhibition of FAAH in OF1 albino mouse brain homogenate assessed as reduction in [3H]ethanolamine production using [3H]anandamide as substrate; assay type: tissue-based
T4 sequence (O08914 whole entry): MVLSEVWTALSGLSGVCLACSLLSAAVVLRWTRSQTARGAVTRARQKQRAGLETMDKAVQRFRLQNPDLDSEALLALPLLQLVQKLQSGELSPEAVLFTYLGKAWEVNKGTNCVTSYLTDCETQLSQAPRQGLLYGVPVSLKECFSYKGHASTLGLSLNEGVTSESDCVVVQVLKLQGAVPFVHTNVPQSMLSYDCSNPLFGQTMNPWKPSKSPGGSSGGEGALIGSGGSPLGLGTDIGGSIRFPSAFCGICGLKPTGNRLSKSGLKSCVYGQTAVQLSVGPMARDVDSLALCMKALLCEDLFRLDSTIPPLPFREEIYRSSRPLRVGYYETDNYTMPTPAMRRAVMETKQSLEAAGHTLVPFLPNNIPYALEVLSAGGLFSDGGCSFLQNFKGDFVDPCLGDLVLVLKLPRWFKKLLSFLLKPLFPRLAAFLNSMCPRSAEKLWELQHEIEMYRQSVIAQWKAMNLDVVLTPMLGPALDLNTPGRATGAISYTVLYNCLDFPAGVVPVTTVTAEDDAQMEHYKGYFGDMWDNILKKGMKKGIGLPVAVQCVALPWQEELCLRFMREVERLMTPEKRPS

[15] = species: Rattus norvegicus; assay: Selectivity ratio of IC50 for rat NAAA using d4-PEA as substrate to IC50 for rat FAAH using [3H]-AEA as substrate
[16] = target: T3, Fatty-acid amide hydrolase 1 (Rattus norvegicus); assay: Inhibition of FAAH in rat brain homogenate using [3H]AEA as substrate at 100 uM incubated for 10 mins by liquid scintillation spectroscopy relative to control; assay type: tissue-based

Cannabinoid receptor 2, sequence (P34972 whole entry): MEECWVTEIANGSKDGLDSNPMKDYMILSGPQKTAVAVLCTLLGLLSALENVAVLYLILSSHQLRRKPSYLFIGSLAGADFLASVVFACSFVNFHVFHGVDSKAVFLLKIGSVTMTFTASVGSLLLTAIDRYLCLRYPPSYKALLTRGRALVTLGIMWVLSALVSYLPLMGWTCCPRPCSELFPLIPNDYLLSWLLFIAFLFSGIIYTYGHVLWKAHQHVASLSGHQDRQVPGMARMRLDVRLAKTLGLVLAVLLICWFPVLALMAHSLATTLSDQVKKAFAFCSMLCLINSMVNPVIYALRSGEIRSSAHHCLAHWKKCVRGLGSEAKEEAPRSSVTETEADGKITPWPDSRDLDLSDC

O=C(NCCCc1ccccc1)n1cc(C(F)(F)F)c(=O)[nH]c1=O
pIC50 [1]: 7.68

O=C(NCCCCN1CCN(c2cccc(Cl)c2Cl)CC1)Oc1cccc2ccccc12
pIC50 [2]: 8.21
pIC50 [3]: 7.66
solubility kinetic [4]: < 1 µM

Cl.O=c1oc(Oc2ccc(F)cc2F)nn1-c1ccc(OCCN2CCCCC2)cc1
Activity [5]: 20%
Activity [6]: 10%

Cc1ccc2c(nc(CN3CCN(C(=O)n4cncn4)CC3)c3cccn32)c1C
pIC50 [7]: 7.49

CCCCCOc1ccc(-c2cc(C(=O)NC34CC5CC(CC(C5)C3)C4)no2)cc1
pIC50 [8]: < 6.00

O=c1oc(Oc2ccc(F)cc2F)nn1-c1cccc(O)c1
Activity [5]: 94%
Activity [6]: 12%

CCCCCCCC/C=C\CCCCCCCC(=O)NO
inhibition [9]: 98.3%

Cl.Cl.O=c1oc(Oc2ccc(F)cc2F)nn1-c1ccc(OCCCN2CCNCC2)cc1
Activity [5]: 85%
Activity [6]: 8%

CCC/C=C/COCC(=O)Nc1ccccc1-c1nc2ncccc2[nH]1
pIC50 [10]: 5.26

O=C(COc1ccc(-c2ccccc2)cc1)Nc1ccccc1-c1nc2ncccc2[nH]1
pIC50 [10]: 5.96

O=C(N1CCC(NCc2nc3cc(F)ccc3n3cccc23)CC1)n1nnc2ccccc21
pIC50 [7]: 8.02

CN(C(=O)n1cnc(-c2ccc[n+]([O-])c2)c1)C1CCCCC1
inhibition [11]: 85%

CCCCCCNC(=O)n1cc(C#N)c(=O)[nH]c1=O
pIC50 [12]: 7.60

CCCCCOc1ccccc1-c1cc(C(=O)NC23CC4CC(CC(C4)C2)C3)no1
pIC50 [13]: < 5.00

O=C(NCCc1ccc(-c2ccccc2)cc1)n1ccc(=O)[nH]c1=O
pIC50 [1]: 7.28

O=C(N1CCN(Cc2nc3cc(Cl)ccc3n3cccc23)CC1)n1nnc2ccccc21
pIC50 [7]: 7.45

CCC/C=C/COCC(=O)Nc1cccc(-c2nc3cccnc3[nH]2)c1
pIC50 [10]: 4.14

O=c1oc(Oc2ccc(F)cc2F)nn1-c1ccc(O)cc1
Activity [5]: 86%
Activity [6]: 12%

Cc1ccc2c(nc(CN3CCN(C(=O)n4nnc5ccccc54)CC3)c3cccn32)c1C
pIC50 [7]: 7.56

COc1ccc2c(cccc2[C@H]2CO[C@H](CCCNC(=O)OCC(N)=O)OC2)c1
pIC50 [14]: 7.20

CCCCCCNC(=O)n1cc(F)c(=O)[nH]c1=O [CARMOFUR]
pIC50 [12]: 7.60

CC(=O)Oc1cn(C(=O)NCCCc2ccc(-c3ccccc3)cc2)c(=O)[nH]c1=O
pIC50 [12]: 9.52
Ratio IC50 [15]: > 10000

Cl.O=c1oc(Oc2ccc(F)cc2F)nn1-c1ccc(OCCN2CCCC2)cc1
Activity [5]: 10%
Activity [6]: 9%

NC(=O)c1cccc(-c2cccc(OC(=O)NCCCN3CCN(c4cccc(Cl)c4Cl)CC3)c2)c1
pIC50 [3]: 10.00

O=C(COc1ccc(-c2ccccc2)cc1)Nc1cccc(-c2nc3ncccc3o2)c1
pIC50 [10]: 6.20

CC(=O)Oc1cn(C(=O)NCCCCc2ccc(-c3ccccc3)cc2)c(=O)[nH]c1=O
pIC50 [12]: 9.10
Ratio IC50 [15]: > 10000

O=C(N1CCN(Cc2nc3ccccc3n3cccc23)CC1)n1cncn1
pIC50 [7]: 7.43

O=C(COc1ccc(C2CCCCC2)cc1)Nc1ccccc1-c1nc2ncccc2[nH]1
pIC50 [10]: 6.19

CCCC/C=C/COCC(=O)Nc1ccc(-c2nc3ncccc3[nH]2)cc1
pIC50 [10]: 4.19

CC(C)c1ccc(OCC(=O)Nc2cccc(-c3nc4ncccc4o3)c2)cc1
pIC50 [10]: 5.68

O=C(COc1ccc(C2CCCCC2)cc1)Nc1ccc(-c2nc3ncccc3[nH]2)cc1
pIC50 [10]: 5.82

NC(=O)c1ccc(-c2ccc(OC(=O)NCCCCN3CCN(c4cccc(Cl)c4Cl)CC3)cc2)cc1
pIC50 [2]: 9.22
pIC50 [3]: 9.15

O=C(N1CCN(Cc2nc3cc(F)ccc3n3cccc23)CC1)n1nnc2ccccc21
pIC50 [7]: 7.63

COc1cccc(N2CCN(C(=O)C(C)c3ccc(CC(C)C)cc3)CC2)c1 (stereo not drawn)
inhibition [16]: 41%

O=C(N1CCN(Cc2nc3cc(F)ccc3n3cccc23)CC1)n1cncn1
pIC50 [7]: 7.68

O=C(COc1ccc(-c2ccccc2)cc1)Nc1ccc(-c2nc3ncccc3o2)cc1
pIC50 [10]: 6.46

CC(C)Cc1ccc(C(C)C(=O)NCc2c(Cl)cccc2Cl)cc1 (stereo not drawn)
inhibition [16]: 19%

CCC/C=C/COCC(=O)Nc1cccc(-c2nc3ncccc3o2)c1
pIC50 [10]: 4.77

Cl.Cl.O=c1oc(Oc2ccc(F)cc2F)nn1-c1ccc(OCCN2CCNCC2)cc1
Activity [5]: 74%
Activity [6]: 5%

O=C(N1CCN(Cc2nc3ccccc3n3cccc23)CC1)n1nnc2ccccc21
pIC50 [7]: 7.63

O=C(NCCCCN1CCN(c2cccc(Cl)c2Cl)CC1)Oc1ccc2ccccc2c1
pIC50 [2]: 8.57
pIC50 [3]: 7.89

O=C(N1CCN(Cc2nc3cc(Cl)ccc3n3cccc23)CC1)n1cncn1
pIC50 [7]: 7.60

O=C(COc1ccc(-c2ccccc2)cc1)Nc1ccc(-c2nc3ncccc3[nH]2)cc1
pIC50 [10]: 6.21

CCCCCCNC(=O)n1cc(OC(C)=O)c(=O)[nH]c1=O
pIC50 [12]: 7.60

Cc1ccccc1N1CCN(C(=O)C(C)c2ccc(CC(C)C)cc2)CC1 (stereo not drawn)
inhibition [16]: 33%

CC(=O)Oc1cn(C(=O)NCCCCCCCc2ccccc2)c(=O)[nH]c1=O
pIC50 [12]: 8.52
Ratio IC50 [15]: 3130

CCCCCCNC(=O)n1ccc(=O)[nH]c1=O
pIC50 [12]: 6.31
Ratio IC50 [15]: 2

O=C(COc1ccccc1)Nc1cccc(-c2nc3ncccc3o2)c1
pIC50 [10]: 4.74

Cc1ccc2c(nc(CNC3CCN(C(=O)n4nnc5ccccc54)CC3)c3cccn32)c1C
pIC50 [7]: 7.60
